Data reported in patent US11071730B2, “Substituted 6-azabenzimidazole compounds” (Gilead Sciences, Inc., priority 2018, dated 2021).

These compounds were tested against human HPK1 (MAP4K1) (Homo sapiens (Human), UniProt Q92918) (assay: HPK1 IC50 Assay (TR-FRET biochemical kinase assay, STK S1 peptide substrate)). Details: recombinant human HPK1 kinase domain 0.15 nM, 10 μM ATP, 1 μM STK S1 peptide; geometric mean.
Procedure, shortened: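 Pre-activated recombinant kinase domain (insect cells; 0.15 nM) pre-incubated with compounds for 15 min, then 10 μM ATP and 1 μM STK S1 peptide added for 3 h at 25 °C in BES pH 7.0. Phosphorylation read by HTRF (665/620 nm). IC50 from four-parameter fits normalized to staurosporine/DMSO controls, geometric mean of repeats.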

human HPK1 (MAP4K1), sequence (Q92918 17-274): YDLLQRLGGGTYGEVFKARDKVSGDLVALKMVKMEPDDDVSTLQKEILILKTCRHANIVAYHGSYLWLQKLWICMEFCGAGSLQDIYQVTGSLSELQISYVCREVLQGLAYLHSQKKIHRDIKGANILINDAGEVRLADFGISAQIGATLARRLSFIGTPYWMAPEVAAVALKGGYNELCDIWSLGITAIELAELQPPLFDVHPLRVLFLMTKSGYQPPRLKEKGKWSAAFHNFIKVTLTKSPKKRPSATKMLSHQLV

Going from `CC(C)n1cnc2cc(-c3ccc4c(c3)N([C@H]3C[C@@H](N5CCCCC5)C3)C(=O)C43CCN(C(=O)C4COC4)CC3)nc(Nc3ccncc3F)c21` [Example 144] to `CO[C@H]1C[C@@H](C(=O)N2CCC3(CC2)C(=O)N([C@H]2C[C@@H](N4CCCCC4)C2)c2cc(-c4cc5ncn(C(C)C)c5c(Nc5ccncc5F)n4)ccc23)C1` [Example 136, 6-(4-((3-fluoropyridin-4-yl)amino)-3-isopropyl-3H-imidazo[4,5-c]pyridin-6-yl)-1′-((1s,3 S)-3-methoxycyclobutane-1-carbonyl)-1-((1s,3 S)-3-(piperidin-1-yl)cyclobutyl)spiro[indoline-3,4′-piperidin]-2-one], the IC50 rises from 300 pM to 500 pM (1.7-fold). The first is the more potent here.

Compared with `CC(=O)N1CCC2(CC1)C(=O)N([C@H]1C[C@@H](N3C[C@H]4CC[C@H]4C3)C1)c1cc(-c3cc4ncn(C(C)C)c4c(Nc4ccncc4F)n3)ccc12` [Example 172], `CC(=O)N1CCC2(CC1)C(=O)N([C@H]1C[C@@H](N3C4CCCC3CC4)C1)c1cc(-c3cc4ncn(C(C)C)c4c(Nc4ccncc4F)n3)ccc12` [Example 186] is 3-fold higher in IC50: 100 pM for the first, 300 pM for the second.

`CO[C@H](C)C(=O)N1CCC2(CC1)C(=O)N([C@H]1C[C@@H](N3CCCCC3)C1)c1cc(-c3cc4ncn(C(C)C)c4c(Nc4ccncc4F)n3)ccc12` [Example 153] and `CC(C)n1cnc2cc(-c3ccc4c(c3)N([C@H]3C[C@@H](N5CCCCC5)C3)C(=O)C43CCN(C(=O)C(C)(C)CO)CC3)nc(Nc3ccncc3F)c21` [Example 106, 6-(4-((3-fluoropyridin-4-yl)amino)-3-isopropyl-3H-imidazo[4,5-c]pyridin-6-yl)-1′-(3-hydroxy-2,2-dimethylpropanoyl)-1-((1s,3s)-3-(piperidin-1-yl)cyclobutyl)spiro[indoline-3,4′-piperidin]-2-one] are the same in IC50: 300 pM for the first, 300 pM for the second.

`Cc1cc(Nc2nc(-c3ccc4c(c3)N([C@H]3C[C@@H](N5CCCCC5)C3)C(=O)C43CCN(C(=O)C(C)(C)CO)CC3)cc3ncn(C(C)C)c23)c(F)cn1` [Example 132] and `CC(=O)N1CCC2(CC1)C(=O)N([C@H]1C[C@@H](N3CCCCC3)C1)c1cc(-c3cc4ncn(C(C)C)c4c(Nc4cc(CO)ncc4F)n3)ccc12` [Example 98] are within 1.5-fold of each other in IC50: 800 pM for the first, 1000 pM for the second.

`CC(C)[C@@H](O)C(=O)N1CCC2(CC1)C(=O)N([C@H]1C[C@@H](N3CCC(C)(C)C3)C1)c1cc(-c3cc4ncn(C(C)C)c4c(Nc4ccncc4F)n3)ccc12` [Example 118] and `CC[C@@H](O)C(=O)N1CCC2(CC1)C(=O)N([C@H]1C[C@@H](N3CCC(C)(C)C3)C1)c1cc(-c3cc4ncn(C(C)C)c4c(Nc4ccncc4F)n3)ccc12` [Example 117] are the same in IC50: 200 pM for the first, 200 pM for the second.

First: Cc1cnc(Nc2nc(-c3ccc4c(c3)N([C@H]3C[C@@H](N5CCCCC5)C3)C(=O)C4(C)C)cc3ncn(C(C)C)c23)cc1C(=O)NC1(CF)CC1 [Example 195]
Second: CC(C)n1cnc2cc(-c3ccc4c(c3)N([C@H]3C[C@@H](N5CCCC5)C3)C(=O)C4(C)C)nc(Nc3ccncc3F)c21 [Example 188]
The IC50 of the first is 1.9-fold higher: 6000 pM for the first, 3200 pM for the second. The second is the more potent here.

`CCn1cnc2cc(-c3ccc4c(c3)N([C@H]3C[C@@H](N5CCCCC5)C3)C(=O)C43CCN(C(=O)C(C)(C)C)CC3)nc(Nc3ccncc3F)c21` [Example 169] and `CCn1cnc2cc(-c3ccc4c(c3)N([C@H]3C[C@@H](N5CCCCC5)C3)C(=O)C43CCN(C4COC4)CC3)nc(Nc3ccncc3F)c21` [Example 175] are the same in IC50: 800 pM for the first, 800 pM for the second.

First: CC(C)n1cnc2cc(-c3ccc4c(c3)N([C@H]3C[C@@H](N5CCCCC5)C3)C(=O)C43CCN(C(=O)C4(F)CC4)CC3)nc(Nc3ccncc3F)c21 [Example 150]
Second: CC(C)n1cnc2cc(-c3ccc4c(c3)N([C@H]3C[C@@H](N5CCCC6(CC6)C5)C3)C(=O)C43CCN(C(=O)C(C)(C)CO)CC3)nc(Nc3ccncc3F)c21 [Example 122]
The IC50 of the first is 2.5-fold higher: 500 pM for the first, 200 pM for the second. The second is the more potent here.

`CC(C)n1cnc2cc(-c3ccc4c(c3)N([C@H]3C[C@@H](N5CCC(C)(C)C5)C3)C(=O)C43CCN(C(=O)C4(C)COC4)CC3)nc(Nc3ccc(F)nc3F)c21` [Example 165] and `CC(C)n1cnc2cc(-c3ccc4c(c3)N([C@H]3C[C@@H](N5CCC(C)(C)C5)C3)C(=O)C43CCN(C(=O)C(C)(C)CO)CC3)nc(Nc3ccc(F)nc3F)c21` [Example 164] are within 1.5-fold of each other in IC50: 60 pM for the first, 80 pM for the second.

`CC(C)n1cnc2cc(-c3ccc4c(c3)N([C@H]3C[C@@H](N5CCC(C)(C)C5)C3)C(=O)C43CCN(C(=O)c4ncon4)CC3)nc(Nc3ccncc3F)c21` [Example 160] and `CC(C)n1cnc2cc(-c3ccc4c(c3)N([C@H]3C[C@@H](N5CCC(C)(C)C5)C3)C(=O)C43CCN(C(=O)c4cocn4)CC3)nc(Nc3ccncc3F)c21` [Example 154] are within 1.5-fold of each other in IC50: 400 pM for the first, 300 pM for the second.

`CC(C)n1cnc2cc(-c3ccc4c(c3)N([C@H]3C[C@@H](N5CC6CCC(C6)C5)C3)C(=O)C43CCN(C(=O)CO)CC3)nc(Nc3ccncc3F)c21` [Example 128] showed an IC50 of 70 pM.

Same assay, conditions: recombinant human HPK1 kinase domain 0.15 nM, 10 μM ATP, 1 μM STK S1 peptide; geometric mean of multiple experiments

Compared with `CC(=O)N1CCC2(CC1)C(=O)N([C@H]1C[C@@H](N3CC4CCC(C3)O4)C1)c1cc(-c3cc4ncn(C(C)C)c4c(Nc4ccncc4F)n3)ccc12` [Example 34], `CC(=O)N1CCC2(CC1)C(=O)N([C@H]1C[C@@H](N3CCC[C@@H](C)C3)C1)c1cc(-c3cc4ncn(C(C)C)c4c(Nc4ccncc4F)n3)ccc12` [Example 32] is 3-fold higher in IC50: 200 pM for the first, 600 pM for the second. The first is the more potent here.

First: CC(C)n1cnc2cc(-c3ccc4c(c3)N([C@H]3C[C@@H](N5C[C@@H](C)[C@@H](C)C5)C3)C(=O)C43CCN(C(=O)C(C)(C)CO)CC3)nc(Nc3ccncc3F)c21 [Example 10]
Second: CC(C)n1cnc2cc(-c3ccc4c(c3)N([C@H]3C[C@@H](N5C[C@@H](C)[C@@H](C)C5)C3)C(=O)C4(C)C)nc(Nc3ccncc3F)c21 [Example 57]
The IC50 of the first is 8-fold lower: 50 pM for the first, 400 pM for the second. The first is the more potent here.

First: CC(C)n1cnc2cc(-c3ccc4c(c3)N([C@H]3C[C@@H](N5CCC[C@@H](F)C5)C3)C(=O)C43CCN(C4COC4)CC3)nc(Nc3ccncc3F)c21 [Example 79]
Second: CC(C)n1cnc2cc(-c3ccc4c(c3)N([C@H]3C[C@@H](N5CCC(C(F)F)C5)C3)C(=O)C43CCN(C4COC4)CC3)nc(Nc3ccncc3F)c21 (stereo partly shown) [Example 48]
The IC50 of the first is 3.8-fold lower: 400 pM for the first, 1500 pM for the second. The first is the more potent here.

First: CC(C)n1cnc2cc(-c3ccc4c(c3)N([C@H]3C[C@@H](N5CCCCC5)C3)C(=O)C4(C)C)nc(Nc3ccncc3F)c21 [Example 83]
Second: CC(C)n1cnc2cc(-c3ccc4c(c3)N([C@H]3C[C@@H](N5CCCCC5)C3)C(=O)[C@]4(C)O)nc(Nc3ccncc3F)c21 [Example 55B, 6-(4-((3-fluoropyridin-4-yl)amino)-3-isopropyl-3H-imidazo[4,5-c]pyridin-6-yl)-3-hydroxy-3-methyl-1-((1s,3s)-3-(piperidin-1-yl)cyclobutyl)indolin-2-one]
The IC50 of the first is 2.8-fold lower: 800 pM for the first, 2200 pM for the second.

`Cc1cc(Nc2nc(-c3ccc4c(c3)N([C@H]3C[C@@H](NCC(C)(C)O)C3)C(=O)C4(C)C)cc3ncn(C(C)C)c23)c(F)cn1` [Example 53] and `CC(C)CN[C@H]1C[C@@H](N2C(=O)C(C)(C)c3ccc(-c4cc5ncn(C(C)C)c5c(Nc5ccncc5F)n4)cc32)C1` [Example 84] are within 1.5-fold of each other in IC50: 2100 pM for the first, 1700 pM for the second.

`CC(=O)N1CCC2(CC1)C(=O)N([C@H]1C[C@@H](N3CCCCC3)C1)c1cc(-c3cc4ncn(C(C)C)c4c(Nc4ccncc4F)n3)ccc12` [Example 67, 1′-acetyl-6-(4-((3-fluoropyridin-4-yl)amino)-3-isopropyl-3H-imidazo[4,5-c]pyridin-6-yl)-1-((1s,3s)-3-(piperidin-1-yl)cyclobutyl)spiro[indoline-3,4′-piperidin]-2-one] and `CC[C@H](C)n1cnc2cc(-c3ccc4c(c3)N([C@H]3C[C@@H](N5CCCCC5)C3)C(=O)C43CCN(C(C)=O)CC3)nc(Nc3ccncc3F)c21` [Example 72] are within 1.5-fold of each other in IC50: 500 pM for the first, 700 pM for the second.

Compared with `CC(C)n1cnc2cc(-c3ccc4c(c3)N([C@H]3C[C@@H](N5CCC(C)(C)C5)C3)C(=O)C43CCN(C(=O)C4COC4)CC3)nc(Nc3ccncc3F)c21` [Example 76], `CC(C)n1cnc2cc(-c3ccc4c(c3)N([C@H]3C[C@@H](N5CCC(C)(C)C5)C3)C(=O)C43CCN(C(=O)[C@@H]4OCC[C@@H]4C)CC3)nc(Nc3ccncc3F)c21` [Example 19A, 1-((1s,3S)-3-(3,3-dimethylpyrrolidin-1-yl)cyclobutyl)-6-(4-((3-fluoropyridin-4-yl)amino)-3-isopropyl-3H-imidazo[4,5-c]pyridin-6-yl)-1′-((2R,3S)-3-methyltetrahydrofuran-2-carbonyl)spiro[indoline-3,4′-piperidin]-2-one] is 2.5-fold lower in IC50: 500 pM for the first, 200 pM for the second.

Going from `CCn1cnc2cc(-c3ccc4c(c3)N([C@H]3C[C@@H](N5CC(C)(C)C5)C3)C(=O)C4(C)C)nc(Nc3ccncc3F)c21` [Example 85] to `CC(C)n1cnc2cc(-c3ccc4c(c3)N([C@H]3C[C@@H](N5CC(C)(C)C[C@H]5CO)C3)C(=O)C43CCN(C4COC4)CC3)nc(Nc3ccncc3F)c21` [Example 38], the IC50 falls from 2500 pM to 1400 pM (1.8-fold).

Going from `CC(C)n1cnc2cc(-c3ccc4c(c3)N([C@H]3C[C@@H](N5CCCCC5)C3)C(=O)C43CCN(C(=O)C4(C)COC4)CC3)nc(Nc3ccc(F)nc3F)c21` [Example 96] to `CC(C)n1cnc2cc(-c3ccc4c(c3)N([C@H]3C[C@@H](N5CCCCC5)C3)C(=O)C43CCN(C(=O)[C@@H](C)O)CC3)nc(Nc3ccc(F)nc3F)c21` [Example 68], the IC50 falls from 200 pM to 100 pM (2-fold).

`CC(C)n1cnc2cc(-c3ccc4c(c3)N([C@H]3C[C@@H](N5CCC(C)(C)C5)C3)C(=O)C43CCN(C(=O)C4(C)CCOC4)CC3)nc(Nc3ccncc3F)c21` (stereo partly shown) [Example 18] and `CC(C)n1cnc2cc(-c3ccc4c(c3)N([C@H]3C[C@@H](N5CCCCC5)C3)C(=O)C43CCN(C(=O)C4CCO4)CC3)nc(Nc3ccncc3F)c21` (stereo partly shown) [Example 22] are the same in IC50: 300 pM for the first, 300 pM for the second.

Going from `CC(C)n1cnc2cc(-c3ccc4c(c3)N([C@H]3C[C@@H](N5CC(F)C6(CC6)C5)C3)C(=O)C43CCN(C4COC4)CC3)nc(Nc3ccncc3F)c21` (stereo partly shown) [Example 49] to `CC(C)n1cnc2cc(-c3ccc4c(c3)N([C@H]3C[C@@H](N5CCCCC5)C3)C(=O)C43CCN(C4COC4)CC3)nc(Nc3cc(F)ncc3F)c21` [Example 92], the IC50 rises from 500 pM to 1900 pM (3.8-fold). The first is the more potent here.
